Assay results from publication PMC6152416, “Pharmacological and Toxicological Screening of Novel Benzimidazole-Morpholine Derivatives as Dual-Acting Inhibitors” (Molecules : A Journal of Synthetic Chemistry and Natural …, 2017).
Read-outs that look alike come from different tables or passages of the source.

Legend:
Assay type in all cases: biochemical
COX-2 = molecular target: T1, COX-2 (Homo sapiens, UniProt P35354); assay: Fluorimetric COX-2 inhibition screening kit (BioVision); conditions: for COX-2 inhibition at the initial concentrations: 10^−3 M and 10^−4 M; for inhibition at 10 µM: 10^−5 M; for inhibition at 1 µM: 10^−6 M, read-out: COX 2 Inhibition %; for inhibition at 0.1 µM: 10^−7 M; for inhibition at 0.01 µM: 10^−8 M; for inhibition at 0.001 µM: 10^−9 M
T1 construct: purchased BioVision (Milpitas, CA, USA) K547-100
T1 sequence (P35354 18-604): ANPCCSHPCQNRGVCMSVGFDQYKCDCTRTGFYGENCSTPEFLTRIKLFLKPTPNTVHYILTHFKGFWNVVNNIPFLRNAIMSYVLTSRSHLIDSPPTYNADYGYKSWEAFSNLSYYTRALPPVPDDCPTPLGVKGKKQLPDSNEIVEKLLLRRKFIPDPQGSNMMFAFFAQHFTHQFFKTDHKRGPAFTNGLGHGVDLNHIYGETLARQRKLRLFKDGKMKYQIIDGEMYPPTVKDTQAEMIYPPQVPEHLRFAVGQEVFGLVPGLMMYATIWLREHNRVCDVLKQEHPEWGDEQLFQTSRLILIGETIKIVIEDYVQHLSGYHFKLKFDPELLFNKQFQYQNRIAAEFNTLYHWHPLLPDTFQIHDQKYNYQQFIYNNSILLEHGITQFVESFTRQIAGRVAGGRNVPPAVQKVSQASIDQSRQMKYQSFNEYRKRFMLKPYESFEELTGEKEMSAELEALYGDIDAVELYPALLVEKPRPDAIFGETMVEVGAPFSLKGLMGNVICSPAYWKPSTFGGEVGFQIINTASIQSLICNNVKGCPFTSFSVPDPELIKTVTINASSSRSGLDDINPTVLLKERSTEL
Procedure: (§1) Inhibitory potency of the compounds on COX-1 and COX-2 enzymes was determined by using fluorimetric COX-1 and COX-2 inhibition screening kits from BioVision (Milpitas, CA, USA). The experimental protocol as described in the guides provided by the supplier was followed. All of the pipetting were performed using a robotized system to increase speed, accuracy and precision. Fluorescence intensities of the samples were kinetically measured at 25 °C for 5–10 min by monitoring emissions at 587 nm after excitation at 535 nm. Two appropriate points (T1 and T2) in the linear range of the plot were chosen and the corresponding fluorescence values (RFU1 and RFU2) were obtained. The slope for all samples including Enzyme Control (EC) was calculated by dividing the net ΔRFU (RFU2 − RFU1) values by the time ΔT (T2 − T1). Percentage of relative inhibition was calculated by using the following equation:% Relative inhibition = (Slope of EC − Slope of S/Slope of EC) × 100 where S is the term representing the tested compound [51, 52]. […] The IC50 values were calculated using the plots of the enzyme activity against concentrations by applying regression analyses.

COX-1 = molecular target: T2, COX-1 (Ovis aries, UniProt P05979); assay: Fluorimetric COX-1 inhibition screening kit (BioVision); conditions: for COX-1 inhibition at the initial concentrations: 10^−3 M and 10^−4 M; for inhibition at 10 µM: 10^−5 M; for inhibition at 1 µM: 10^−6 M; for inhibition at 0.1 µM: 10^−7 M; for inhibition at 0.01 µM: 10^−8 M; for inhibition at 0.001 µM: 10^−9 M
T2 construct: purchased BioVision (Milpitas, CA, USA) K548-100
T2 sequence (P05979 25-600): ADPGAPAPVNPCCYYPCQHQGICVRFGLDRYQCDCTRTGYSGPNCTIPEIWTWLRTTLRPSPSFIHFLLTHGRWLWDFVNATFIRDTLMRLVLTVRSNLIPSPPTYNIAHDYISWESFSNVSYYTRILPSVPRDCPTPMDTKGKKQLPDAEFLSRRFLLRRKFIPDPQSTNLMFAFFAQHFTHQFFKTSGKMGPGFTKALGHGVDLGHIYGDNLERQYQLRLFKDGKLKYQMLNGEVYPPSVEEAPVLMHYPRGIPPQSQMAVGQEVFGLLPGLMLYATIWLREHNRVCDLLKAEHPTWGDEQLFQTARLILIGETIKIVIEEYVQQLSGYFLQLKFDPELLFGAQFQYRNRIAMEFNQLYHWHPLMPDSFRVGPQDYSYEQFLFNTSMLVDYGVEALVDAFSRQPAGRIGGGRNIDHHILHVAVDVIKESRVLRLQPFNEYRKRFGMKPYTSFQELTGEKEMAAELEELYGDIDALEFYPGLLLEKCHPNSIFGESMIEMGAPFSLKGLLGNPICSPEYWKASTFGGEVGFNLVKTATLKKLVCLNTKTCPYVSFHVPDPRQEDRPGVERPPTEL
Procedure: as §1

human recombinant MAO-B = molecular target: T3, human recombinant MAO-B (Homo sapiens, UniProt P27338); assay: MAO inhibition assay (kynuramine, fluorimetric)
T3 sequence (P27338 1-520): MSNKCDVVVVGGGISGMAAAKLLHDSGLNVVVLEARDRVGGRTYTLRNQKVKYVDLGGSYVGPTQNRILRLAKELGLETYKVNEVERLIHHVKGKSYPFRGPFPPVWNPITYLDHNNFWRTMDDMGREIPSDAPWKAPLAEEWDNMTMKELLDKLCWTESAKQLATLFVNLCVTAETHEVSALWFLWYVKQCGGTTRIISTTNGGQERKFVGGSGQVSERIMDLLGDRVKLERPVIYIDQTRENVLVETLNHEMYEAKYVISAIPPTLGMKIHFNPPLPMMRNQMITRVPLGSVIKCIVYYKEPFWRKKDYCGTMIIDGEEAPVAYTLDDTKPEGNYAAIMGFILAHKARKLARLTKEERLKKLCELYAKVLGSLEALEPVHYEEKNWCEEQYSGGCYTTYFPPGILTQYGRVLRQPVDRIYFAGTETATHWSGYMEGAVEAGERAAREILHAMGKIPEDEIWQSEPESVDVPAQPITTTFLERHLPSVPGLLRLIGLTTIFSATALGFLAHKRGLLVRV
Procedure: (§2) Enzyme activity assays were performed according to the procedure reported by Matsumoto et al. with slight modifications. In order to prevent the destructive effect of light on MAO enzymes, the assays were performed in 96-well black plates. Phosphate buffer solution (0.1 M, pH = 7.4) was used for preparation of stock solutions (5 mg/mL) of both human recombinant MAO-A and MAO-B enzymes. […] The addition of the test compound solution was followed by addition of either MAO-A or MAO-B enzyme (50 μL/well) solutions. After 10 min of incubation at 37 °C, kynuramine (50 μL/well) was added and enzyme-substrate reaction was initiated. The plate was incubated for 20 min at 37 °C and then reaction was terminated by addition of 2 N NaOH (75 μL/well). The fluorimetric reads from the top was performed at 310 nm excitation and 380 nm emission wavelengths.

human recombinant MAO-A = molecular target: T4, human recombinant MAO-A (Homo sapiens, UniProt P21397); assay: MAO inhibition assay (kynuramine, fluorimetric)
T4 sequence (P21397 1-527): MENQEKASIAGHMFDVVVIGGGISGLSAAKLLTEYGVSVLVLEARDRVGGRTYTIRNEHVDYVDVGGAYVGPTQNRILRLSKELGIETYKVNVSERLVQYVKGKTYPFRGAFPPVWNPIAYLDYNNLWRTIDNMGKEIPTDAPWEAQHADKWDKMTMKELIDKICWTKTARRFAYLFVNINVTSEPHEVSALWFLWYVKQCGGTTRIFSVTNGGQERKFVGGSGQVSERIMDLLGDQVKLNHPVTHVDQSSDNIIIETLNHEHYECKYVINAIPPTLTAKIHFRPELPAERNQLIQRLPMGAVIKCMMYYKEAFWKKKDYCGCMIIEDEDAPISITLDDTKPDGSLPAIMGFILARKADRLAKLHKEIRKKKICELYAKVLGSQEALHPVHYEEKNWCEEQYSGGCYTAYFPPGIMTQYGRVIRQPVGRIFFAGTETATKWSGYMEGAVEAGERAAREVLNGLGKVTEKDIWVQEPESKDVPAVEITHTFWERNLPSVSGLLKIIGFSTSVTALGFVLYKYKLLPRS
Procedure: as §2

AChE = AChE (Homo sapiens, UniProt P22303)
Chain of AChE (P22303 32-614): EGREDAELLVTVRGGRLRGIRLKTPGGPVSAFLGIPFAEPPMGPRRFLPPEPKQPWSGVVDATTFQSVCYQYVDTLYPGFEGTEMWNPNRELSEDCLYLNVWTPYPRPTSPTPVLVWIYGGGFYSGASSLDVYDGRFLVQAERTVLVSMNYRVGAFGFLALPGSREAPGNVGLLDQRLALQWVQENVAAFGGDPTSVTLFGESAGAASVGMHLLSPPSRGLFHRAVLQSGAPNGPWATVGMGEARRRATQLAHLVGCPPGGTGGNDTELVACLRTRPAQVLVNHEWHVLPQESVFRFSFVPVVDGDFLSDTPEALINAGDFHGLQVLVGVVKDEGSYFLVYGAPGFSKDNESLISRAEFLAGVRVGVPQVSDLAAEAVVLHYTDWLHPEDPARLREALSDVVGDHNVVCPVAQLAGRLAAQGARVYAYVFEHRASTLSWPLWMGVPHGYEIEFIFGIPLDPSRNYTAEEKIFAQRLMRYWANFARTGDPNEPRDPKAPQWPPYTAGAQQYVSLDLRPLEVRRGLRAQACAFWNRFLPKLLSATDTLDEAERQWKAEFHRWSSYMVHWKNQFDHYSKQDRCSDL
Procedure: Inhibition potency of the test compounds against AChE was determined using Ellman’s method. Enzyme solutions were prepared in gelatin solution (1%, w/v), at the concentration of 2.5 units/mL. […] AChE solution (20 µL/well) and test solution (20 µL/well) were added to phosphate buffer solution (140 µL/well, pH 8.0 ± 0.1), and incubated at 25 °C for 5 min. […] The production of the yellow anion was recorded by multimode microplate reader for 10 min at 412 nm. As a control, an identical solution of the enzyme without the inhibitor was processed. The control and the inhibitor readings were corrected with blank-readings. All processes were assayed in four independent determinations.

| SMILES | IC50 (COX-2) | COX-2 Inhibition (%) (COX-2; 10^-3 M) | COX-2 Inhibition (%) (COX-2; 10^-4 M) | COX-2 inhibition at the initial concentrations (COX-2) | inhibition at 10 µM (COX-2) | inhibition at 1 µM (COX-2) | inhibition at 0.1 µM (COX-2) | inhibition at 0.01 µM (COX-2) | inhibition at 0.001 µM (COX-2) | IC50 (COX-1) | COX-1 Inhibition (%) (COX-1; 10^-3 M) | COX-1 Inhibition (%) (COX-1; 10^-4 M) | COX-1 inhibition at the initial concentrations (COX-1) | inhibition at 10 µM (COX-1) | MAO-B Inhibition (%) (human recombinant MAO-B; 10^-3 M) | MAO-B Inhibition (%) (human recombinant MAO-B; 10^-4 M) | MAO-A Inhibition (%) (human recombinant MAO-A; 10^-3 M) | MAO-A Inhibition (%) (human recombinant MAO-A; 10^-4 M) | AChE Inhibition (%) (AChE; 10^-3 M) | AChE Inhibition (%) (AChE; 10^-4 M) | further results |
| --- | --- | --- | --- | --- | --- | --- | --- | --- | --- | --- | --- | --- | --- | --- | --- | --- | --- | --- | --- | --- | --- |
| Cc1ccc(-c2nc3ccccc3n2CCN2CCOCC2)cc1 [Compound 2a, 2-(4-Methylphenyl)-1-[2-(morpholin-4-yl)ethyl]-1H-benzimidazole] | 58.7 µM | 58.28% | 56.23% | more than 50% | 43.7 ± 1.07% | 40.3 ± 1.1% | 38.3 ± 0.92% | 36.2 ± 0.87% | 32.4 ± 0.91% | 56.1 µM | 75.08% | 71.23% | more than 50% | 47.4 ± 1.08% | 25.27% | 16.63% | 24.29% | 19.15% | 21.80% | 21.80% | inhibition at 1 µM (COX-1): 40.1 ± 0.92%; inhibition at 0.1 µM (COX-1): 35.7 ± 0.97%; inhibition at 0.01 µM (COX-1): 30.5 ± 0.83%; inhibition at 0.001 µM (COX-1): 28.8 ± 0.79% |
| Fc1ccc(-c2nc3ccccc3n2CCN2CCOCC2)cc1 [Compound 2d, 2-(4-Fluorophenyl)-1-[2-(morpholin-4-yl)ethyl]-1H-benzimidazole] |  | 21.08% | 28.46% |  |  |  |  |  |  |  | 31.87% | 29.36% |  |  | 45.29% | 38.96% | 39.79% | 33.11% | 16.20% | 16.20% |  |
| c1ccc(COc2ccc(-c3nc4ccccc4n3CCN3CCOCC3)cc2)cc1 [Compound 2f, 2-(4-Benzyloxyphenyl)-1-[2-(morpholin-4-yl)ethyl]-1H-benzimidazole] | 44.9 µM | 61.23% | 60.20% | more than 50% | 47 ± 1.13% | 40.2 ± 1.24% | 35.6 ± 0.91% | 31.5 ± 0.84% | 28.7 ± 0.63% | 43.2 µM | 75.37% | 79.08% | more than 50% | 45.4 ± 0.99% | 39.32% | 31.14% | 32.14% | 20.65% | 15.75% | 15.75% | inhibition at 1 µM (COX-1): 42.1 ± 0.87%; inhibition at 0.1 µM (COX-1): 34.2 ± 0.76%; inhibition at 0.01 µM (COX-1): 32.7 ± 0.78%; inhibition at 0.001 µM (COX-1): 29.9 ± 0.68% |
| Brc1ccc(-c2nc3ccccc3n2CCN2CCOCC2)cc1 [Compound 2g, 2-(4-Bromophenyl)-1-[2-(morpholin-4-yl)ethyl]-1H-benzimidazole] |  | 16.30% | 19.03% |  |  |  |  |  |  |  | 29.47% | 21.74% |  |  | 38.63% | 30.87% | 30.85% | 22.29% | 13.04% | 13.04% |  |
| CCN(CC)c1ccc(-c2nc3ccccc3n2CCN2CCOCC2)cc1 [Compound 2h, 2-(4-Diethylaminophenyl)-1-[2-(morpholin-4-yl)ethyl]-1H-benzimidazole] | 51.2 µM | 56.20% | 57.08% | more than 50% | 47.5 ± 1.08% | 42.6 ± 1.16% | 31.8 ± 0.99% | 28.4 ± 0.82% | 23 ± 0.68% | 43 µM | 75.21% | 78.21% | more than 50% | 46.3 ± 1.09% | 45.58% | 36.16% | 36.71% | 23.16% | 10.49% | 10.49% | inhibition at 1 µM (COX-1): 40.9 ± 0.99%; inhibition at 0.1 µM (COX-1): 35.6 ± 0.81%; inhibition at 0.01 µM (COX-1): 30.8 ± 0.93%; inhibition at 0.001 µM (COX-1): 24.2 ± 0.72% |
| CN(C)c1ccc(-c2nc3ccccc3n2CCN2CCOCC2)cc1 [Compound 2i, 2-(4-Dimethylaminophenyl)-1-[2-(morpholin-4-yl)ethyl]-1H-benzimidazole] |  | 18.47% | 25.76% |  |  |  |  |  |  |  | 30.08% | 22.62% |  |  | 22.17% | 14.43% | 26.91% | 19.20% | 7.54% | 7.54% |  |
| N#Cc1ccc(-c2nc3ccccc3n2CCN2CCOCC2)cc1 [Compound 2k, 2-(4-Cyanophenyl)-1-[2-(morpholin-4-yl)ethyl]-1H-benzimidazole] |  | 26.39% | 20.46% |  |  |  |  |  |  |  | 28.63% | 28.13% |  |  | 43.22% | 34.29% | 31.99% | 26.86% | 20.45% | 20.45% |  |
